Data as given in patent US9795609B2, “Pharmaceutical composition of 1-adamantylethyloxy-3-morpholino-2-propanol or pharmaceutically acceptable salts thereof for the treatment of cardiovascular disease” (priority 2012, dated 2017).

What was measured:
Type in all cases: in vivo
cats = experiment: Coronary blood flow and haemodynamics in cats after intravenous administration; conditions: 3, 5, and 10 mg/kg intravenously
Source text: The ability of the pharmaceutical composition for parenteral use comprising the active substance 1-adamantylethyloxy-3-morpholino-2-propanol or pharmaceutically acceptable salts thereof to improve myocardial perfusion indicates to appropriateness of its use in acute coronary syndrome.

[1] = tested on: rats with small-focus myocardial infarction; experiment: Experimental therapy of rats with small-focus myocardial infarction
Source text: The ability of the pharmaceutical composition for parenteral use comprising the active substance 1-adamantylethyloxy-3-morpholino-2-propanol or pharmaceutically acceptable salts thereof allows its use for treatment of cardiomyopathies of various geneses (alcoholic, infectious, toxic, and metabolic).
This allows to use it for treatment of various forms of coronary artery disease, including unstable angina pectoris, stable rest and exertional angina pectoris, angina pectoris of intact vessels, acute coronary syndrome (including early postinfarction angina pectoris), myocardial infarction (large-focus and small-focus, repeated and recurrent) post resuscitation disease (state after emergency procedures), treatment and prevention of ischemic myocardial postreperfusion injuries after thrombolysis, stenting, balloon angioplasty, coronary vessels atheroctomy, postinfarction myocardiosclerosis, cardiomyopathies of various genesis (alcoholic, infectious-toxic, and metabolic), heart rhythm disorders, diabetic angiopathies and complications thereof.

[2] = tested on: rats with acute adrenal cardiomyopathy; experiment: Acute adrenal cardiomyopathy simulation in rats, preventive single administration; conditions: single doses of 15, 30, 50 and 100 mg/kg one hour before simulation
Source text: This allows to use it for treatment of various forms of ischemic heart disease, including unstable angina pectoris, stable rest and exertional angina pectoris, angina pectoris of intact vessels, acute coronary syndrome (including early postinfarction angina pectoris), myocardial infarction (large-focus and small-focus, repeated and recurrent) post resuscitation disease (state after emergency procedures), and cardiomyopathies of various genesis (alcoholic, infectious-toxic, and metabolic).

[3] = 10 mg/kg once a day for 96 hours of ischemia

OC(COCCC12CC3CC(CC(C3)C1)C2)CN1CCOCC1 (stereo not shown) [1-adamantylethyloxy-3-morpholino-2-propanol]
coronary blood flow (cats): stimulates coronary blood flow | hypotension (cats): not accompanied by hypotension | peripheral vasodilatation, venous inflow and cardiac output (cats): not associated with peripheral vasodilatation, decreased of venous inflow and cardiac output | bcl-2 antiapoptotic protein expression ([1]; 10 mg/kg once a day for 96 hours): promoted the increasing of bcl-2 antiapoptotic protein expression | RNA content and transcriptional activity of cardiomyocytes [1, 3]: increasing of RNA content and transcriptional activity | c-fos protein content in cardiomyocytes [1, 3]: promoted the increasing of c-fos protein content in cardiomyocytes | cardiomyocytes nuclei density [1, 3]: retention of cardiomyocytes nuclei density | percentage of necrotic cardiomyocytes [1, 3]: the percentage of necrotic cardiomyocytes is reduced | manifestations of endothelial dysfunction and nitrosating stress ([1]; 3, 10, 20, 50 and 100 mg/kg once a day for 96 hours of ischemia): promoted to reduce manifestations of endothelial dysfunction and nitrosating stress | mortality [2]: promoted the reducing mortality in rats
